This is an account of results in US8273754B2, “Substituted 1H-pyrazolo[3,4-D]pyrimidine-6-amine compounds” (ArQule, Inc., priority 2008, dated 2012).

Where two headings read alike, the source gives them in different places. Some results are limits rather than exact numbers.

This experiment relates to cancer cells. Kind of experiment: MTS cell growth inhibition assay (72 hours). The experiment is classed as cell-based. An outline of the steps:
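Growth inhibition read as formazan absorbance at 492 nm after 4 h MTS/PMS, following 72 h compound exposure at 37 °C in 1% FBS DMEM (cells pre-seeded 18 h). IC50 = 50% absorbance reduction; inhibition graded in bands.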

The mark [1] stands for this setting: Homo sapiens, DLD-1, 72 h, DLD-1 cells, read-out: DLD-1 MTS 72 hr at 10 μM.
The mark [2] stands for this setting: Homo sapiens, KATO III, 72 h, KATO III cells, read-out: KATO III MTS 72 hr at 10 μM.
The mark [3] stands for this setting: Homo sapiens, MDA-MB-231, 72 h, MDA-MB-231 cells, read-out: MDA-MB-231 MTS 72 hr at 10 μM.
[4] abbreviates: Homo sapiens, NCI-H1299, 72 h, NCI-H1299 cells, read-out: NCI-H1299 MTS 72 hr at 10 μM.
The mark [5] stands for this setting: PaCa-2, 72 h, PACA-2 cells, read-out: PACA-2 MTS 72 hr at 10 μM.

Turning to `COc1ccc(Oc2ccccc2CN2CC(Nc3nc(N)nc4[nH]ncc34)Cc3ccccc32)cc1` (centres unmarked) [Compound 153, N4-{1-[2-(4-methoxyphenoxy)benzyl]-1,2,3,4-tetrahydroquinolin-3-yl}-1H-pyrazolo[3,4-d]pyrimidine-4,6-diamine], the inhibition at 10 µM was 50 to 79% under setting [1]; 50 to 79% under setting [2]; < 50% under setting [3]; < 50% under setting [4]; < 50% under setting [5].

Turning to `Nc1nc(NC2Cc3ccccc3N(S(=O)(=O)c3ccc(NC(=O)Nc4ccccc4Cl)cc3)C2)c2cn[nH]c2n1` (centres unmarked) [Compound 190, 1-[4-({3-[(6-amino-1H-pyrazolo[3,4-d]pyrimidin-4-yl)amino]-3,4-dihydroquinolin-1(2H)-yl}sulfonyl)phenyl]-3-(2-chlorophenyl)urea], the inhibition at 10 µM by setting is: under setting [1], < 50%; under setting [2], < 50%; under setting [3], < 50%; under setting [4], < 50%; under setting [5], < 50%.

For the compound `Nc1nc(NC2Cc3ccccc3N(S(=O)(=O)c3cccc(NC(=O)Nc4c(F)cccc4C(F)(F)F)c3)C2)c2cn[nH]c2n1` (centres unmarked) [Compound 204, 1-[3-({3-[(6-amino-1H-pyrazolo[3,4-d]pyrimidin-4-yl)amino]-3,4-dihydroquinolin-1(2H)-yl}sulfonyl)phenyl]-3-[2-fluoro-6-(trifluoromethyl)phenyl]urea], the inhibition at 10 µM runs as follows: under setting [1], < 50%; under setting [2], < 50%; under setting [3], < 50%; under setting [4], < 50%; under setting [5], 50 to 79%.

Regarding `Cc1cc(C)c(S(=O)(=O)N2CCC(Nc3nc(N)nc4[nH]ncc34)Cc3ccccc32)c(C)c1` (centres unmarked) [Compound 173, N4-[1-(mesitylsulfonyl)-2,3,4,5-tetrahydro-1H-1-benzazepin-4-yl]-1H-pyrazolo[3,4-d]pyrimidine-4,6-diamine], the inhibition at 10 µM under setting [1] was < 50%; the inhibition at 10 µM under setting [2] is < 50%; the inhibition at 10 µM under setting [3] is < 50%; the inhibition at 10 µM under setting [4] is < 50%; the inhibition at 10 µM under setting [5] was < 50%.

`Nc1nc(NC2Cc3ccccc3N(S(=O)(=O)c3cccc(NC(=O)Nc4ccc(F)c(F)c4)c3)C2)c2cn[nH]c2n1` (centres unmarked) [Compound 207, 1-[3-({3-[(6-amino-1H-pyrazolo[3,4-d]pyrimidin-4-yl)amino]-3,4-dihydroquinolin-1(2H)-yl}sulfonyl)phenyl]-3-(3,4-difluorophenyl)urea]: the inhibition at 10 µM is > 79% under setting [1]; > 79% under setting [2]; > 79% under setting [3]; > 79% under setting [4]; > 79% under setting [5].

Regarding `Cc1ccc(CN2CC(Nc3nc(N)nc4[nH]ncc34)Cc3ccccc32)c(C)c1` (centres unmarked) [Compound 134, N4-[1-(2,4-dimethylbenzyl)-1,2,3,4-tetrahydroquinolin-3-yl]-1H-pyrazolo[3,4-d]pyrimidine-4,6-diamine], the inhibition at 10 µM was > 79% under setting [1]; > 79% under setting [2]; < 50% under setting [3]; < 50% under setting [4]; 50 to 79% under setting [5].

With `Nc1nc(NC2CCN(S(=O)(=O)c3cc(Cl)cc(Cl)c3)c3ccccc3C2)c2cn[nH]c2n1` (centres unmarked) [Compound 174, N4-{1-[(3,5-dichlorophenyl)sulfonyl]-2,3,4,5-tetrahydro-1H-1-benzazepin-4-yl}-1H-pyrazolo[3,4-d]pyrimidine-4,6-diamine], the inhibition at 10 µM was 50 to 79% under setting [1]; 50 to 79% under setting [2]; < 50% under setting [3]; < 50% under setting [4]; 50 to 79% under setting [5].
